Source: article PMC9574860, “Chemical Toolkit for PARK7: Potent, Selective, and High-Throughput” (Journal of Medicinal Chemistry, 2022)
pIC50: −log10 of the molar value.

Assays:
PARK7 [1] = biological target: T1, PARK7 (Homo sapiens, UniProt Q99497); experiment: FP binding saturation experiment, kinact/KI of probe JYQ-107; design: GST (N, cleaved yes); made in house; host or cells: E. coli BL21(DE3) Rosetta2; details: FP probe binding to PARK7 (0 to 5 μM); slope of kobs vs PARK7 concentration; Figure S6D
T1 sequence (Q99497 1-189): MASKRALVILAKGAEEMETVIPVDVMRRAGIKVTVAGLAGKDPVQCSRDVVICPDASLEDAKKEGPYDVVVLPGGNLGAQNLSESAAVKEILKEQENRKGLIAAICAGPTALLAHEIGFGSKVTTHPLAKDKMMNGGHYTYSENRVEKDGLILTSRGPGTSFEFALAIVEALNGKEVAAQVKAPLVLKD
Protocol: First, the relation between the change in FP values for JYQ-107 binding to PARK7 was determined. We used a fixed concentration (20 nM) of JYQ-107, incubated it with different amounts of PARK7 (0 to 5 μM), and monitored the FP signal (λex/em 485/520 nm) over time (Supporting Information Figure S6A). The change in FP (ΔmP) was plotted against PARK7 concentration after different incubation times (Figure 5B, left, Supporting Information Figure S6B). […] The latter is expected, as covalent complex formation has a time-dependency, and thus, equilibrium binding values could not be determined for the FP reagent.[45] […] To this end, we calculated the Z’ value, a critical parameter used to assess the quality and HTS suitability of a given assay, for the used PARK7 concentrations and incubation times (Figure 5B, right, Supporting Information Figure S6C).[46] […]
This assay was performed in the buffer containing 50 mM Tris–HCl, 150 mM NaCl, 2 mM TCEP, pH 7.5, and 1 mg/mL CHAPS and conducted in a 384-well plate (Corning 3820) with a reaction volume 20 μL in triplicate. A serial dilution of PARK7 from 0 to 5 μM (final concentration) was mixed with constant concentration JYQ-107 ([…]), and the increasing FP signal over time was measured at λex/em 480/520 nm using a PHERAstar (BMG Labtech) for 150 min. […]

UCHL1 = biological target: T2, UCHL1 (Homo sapiens, UniProt P09936); experiment: UCHL1 activity assay (Ub-Rho-Morpholine or Ub-AMC substrate); type: biochemical; details: UCHL1 1 nM, 1 h preincubation; read-out: UbRhoMP assay UCHL1 IC50
T2 sequence (P09936 1-223): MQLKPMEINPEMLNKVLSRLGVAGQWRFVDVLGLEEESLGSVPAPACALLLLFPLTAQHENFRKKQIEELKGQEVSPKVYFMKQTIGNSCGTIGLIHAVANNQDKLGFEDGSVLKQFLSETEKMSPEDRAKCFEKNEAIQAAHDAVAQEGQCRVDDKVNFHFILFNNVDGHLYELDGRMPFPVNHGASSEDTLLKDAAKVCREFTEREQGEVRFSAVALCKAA
Protocol: The assay was performed in a buffer containing 50 mM Tris·HCl, 100 mM NaCl at pH 7.5, 2.0 mM cysteine, 1 mg/mL 3-[(3-cholamidopropyl)dimethylammonio]propanesulfonic acid (CHAPS), and 0.5 mg/mL bovine serum albumin and conducted in a 384-well plate (Corning 3820) with a reaction volume 20 μL in triplicate. The compounds were dissolved in DMSO as 10, 1, and 0.1 mM stock solutions and were transferred to obtain a 12-point serial dilution of 0.05 to 200 μM. Next, UCHL1 (15 μL, final concentration of 1 nM) was dispensed with a Biotek MultiFlowFX liquid dispenser and incubated for 1 h, followed by dispensing the substrate Ub-Rho-Morpholine or Ub-AMC (5 μL, final concentration of 400 nM). The FI signal was monitored with a BMG Labtech PHERAstar plate reader (λex/em 487/535 nm or λex/em 350/450 nm) for 1 h. N-Ethylmaleimide (NEM, 10 mM) was used as a positive control (100% inhibition), and DMSO was used as a negative control (0% inhibition). All samples were normalized to the positive and negative controls and plotted against the inhibitor concentrations (in μM) using the built-in equation “[inhibitor] vs response – variable slope (four parameters), least-squares fit” with constraints “Bottom = 0” and “Top = 100” in GraphPad Prism 9.0.1 software to obtain the IC50 values.

PARK7 [2] = biological target: T1, PARK7; experiment: Probe labeling of purified recombinant PARK7 (SDS-PAGE, fluorescence scanning); type: binding; design: GST (N, cleaved yes); made in house; host or cells: E. coli BL21(DE3) Rosetta2; details: purified PARK7 1 μM, 1 h 37 °C; Figure 4A
From the text: PARK7 inhibitor JYQ-88 was further converted into activity-based probes by installing SulfoCy5, Rhodamine110, or BodipyFL. We took advantage of the azide moiety in JYQ-88 and conjugated alkyne versions of these dyes using the copper(I)-catalyzed azide alkyne cycloaddition (CuAAC) to obtain compounds JYQ-92, JYQ-93, and JYQ-107 (Scheme 2). We next investigated the ability of the probes to label and visualize PARK7. […] The SulfoCy5 probe JYQ-92 and Rhodamine110 probe JYQ-107 labeled PARK7 already at 1 μM, while the BodipyFL probe JYQ-93 was less efficient than the other probes as PARK7 labeling was only observed from 5 μM.
All the labeling assays were performed in Tris buffer (50 mM Tris–HCl, 150 mM NaCl, 2 mM TCEP, pH 7.5). For labeling with the 8RK59 probe, 1 μM final concentrations of UCHL1 and PARK7 were individually or together incubated with 2 μM final concentrations of 8RK59 for 30 min at 37 °C, followed by protein visualization. For labeling with JYQ-92, JYQ-93, and JYQ-107, 1 μM final concentration of PARK7 was incubated with different concentrations (0, 0.1, 0.5, 1, 2, 5, and 10 μM) of the indicated probes for 1 h at 37 °C. […] These samples were resolved by SDS-PAGE using precast Bis-Tris gels (Invitrogen, NuPAGE) with MES SDS running buffer (Novex, NuPAGE).

N#CN1CC[C@@H](C(=O)Nc2nc3c(s2)CN(C(=O)Cn2cc(CCCNC(=O)c4ccc(-c5c6ccc(=N)cc-6oc6cc(N)ccc56)c(C(=O)O)c4)nn2)CC3)C1 [JYQ-107]
kinact/KI (PARK7 [1]): 1180 M⁻¹ s⁻¹ | pIC50 (UCHL1): 4.73 | Probe concentration from which PARK7 labeling was observed (PARK7 [2]): 1 µM
